The target in test [1] is MMP-13 (Homo sapiens, UniProt P45452). Briefly: MMP-13 inhibition (thiopeptide or fluorescent peptide substrate). It counts as biochemical. Conditions: read-out: MMP13; for inhibition at 1 µM: % at 1 um (specified in cell); for inhibition at 10 µM: % @ 10µM per footnote a. An excerpt: Alternatively, a fluorescent peptide substrate is used.
Test [2] has as its target TNF-α converting enzyme (TACE) (Homo sapiens, UniProt P78536). Briefly: Test procedure for measuring TACE inhibition (fluorescent peptidyl substrate). In kind it is biochemical. Conditions: for inhibition at 10 µM: % @ 10µM per footnote a, read-out: TACE IC50.
In test [3] the test system is THP-1 cells. Briefly: Human monocytic THP-1 cell differentiation assay for soluble proteins (THP soluble protein assay), LPS-stimulated, TNF-α ELISA. Conditions: for inhibition at 3 µM: Homo sapiens, THP-1; at 3 uM; percent change from vehicle positive control; read-out: TNFalpha at 3 uM) THP (percent change); for THP (% inhibition): Table 1, concentration not given. In kind it is cell-based. An excerpt:
Mitogenic stimulation of THP-1 cells cause differentiation into macrophage like cells with concomitant secretion of tumor necrosis factor (TNF-a) and TNF receptor (TNF-R p75/80 and TNF-R p55/60) and Interleukin-8 (IL-8), among other proteins. In addition, non-stimulated THP-1 cells shed both the p75/80 and the p55/60 receptors over time. The release of membrane bound TNF-a and possibly TNF-R p75/80 and TNF-R p55/60, but not IL-8, is mediated by an enzyme called TNF-α converting enzyme or TACE.
THP-1 cells (from ATCC) are a human monocytic cell line which were obtained from the peripheral blood of a person with acute monocytic leukemia. They can be grown in culture and differentiated into macrophage like cells by stimulation with mitogens.
Each vial of cells are cultured for about two weeks prior to being used for an assay and then are used for only 4 to 6 weeks to screen compounds.
Cell exposure to DMSO was limited to 0.1 % final concentration. […] Compounds can be evaluated for their effect on basal (non-stimulated) shedding of the receptors by replacing the LPS with […] of THP-1 media. Plates are placed into an incubator set at 5% CO2 and at 37°C. After 4 hours of incubation, […] of tissue culture supernatant (TCS) is removed for use in an TNF-α ELISA. Following 24 hours of incubation, […] of TCS is removed and used for analysis in TNF-R p75/80, TNF-R p55/60 and IL-8 ELISAs.
In addition, at the 24 hours timepoint, and the cells for each treatment group are collected by resuspension in 500 µl/well of THP-1 media and transferred into a FACS tube. […] The samples are run on a Becton Dickinson FaxCaliber FLOW cytometry machine and the amount of dye taken up by each cell is measured in the high red wavelength (FL3). Only cells with compromised membranes (dead or dying) can take up PI. The percent of live cells is calculated by the number of cells not stained with PI, divided by the total number of cells in the sample. The viability values calculated for the drug treated groups were compared to the viability value calculated for the vehicle treated mitogen stimulated group ("vehicle positive control") to determine the "percent change from control". This "percent change from control" value is an indicator of drug toxicity.
The quantity of soluble TNF-α, TNF-R p75/80 and TNF-R p55/60 and IL-8 in the TCS of the THP-1 cell cultures are obtained with commercially available ELISAs from R&D Systems, by extrapolation from a standard curve generated with kit standards. The number of cells that either take up or exclude PI are measured by the FLOW cytometry machine and visualized by histograms using commercially available Cytologic software for each treatment group including all controls.
Biological variability in the magnitude of the response of THP-1 cell cultures requires that experiments be compared on the basis of percent change from "vehicle positive control" for each drug concentration. Percent change in each soluble protein evaluated from the "vehicle positive control" was calculated for each compound concentration with the following formula: % Change =(pg/ml (compound) - pg/ml (veh pos control))/(pg/ml (veh pos control) - pg/ml (veh neg control))x 100 [formula]
For the soluble protein (TNF-a, p75/80, p55/60, IL-8) studies under stimulated conditions, the mean pg/ml of duplicate wells were determined and the results expressed as percent change from "vehicle positive control". For the soluble protein (p75/80 and p55/60 receptors) studies under non-stimulated conditions, the mean pg/ml of duplicate wells were determined and the results expressed as percent change from […] utilizing the following formula: % Change =(pg/ml (compound neg control) - pg/ml (veh neg control))/(pg/ml (veh neg control))X 100 [formula]
IC50 values for each compound are calculated by non-linear regression analysis using customized software utilizing the JUMP statistical package.

Test [4] deals with T1, MMP-1 (Homo sapiens, UniProt P03956).
T1 sequence (P03956 100-469): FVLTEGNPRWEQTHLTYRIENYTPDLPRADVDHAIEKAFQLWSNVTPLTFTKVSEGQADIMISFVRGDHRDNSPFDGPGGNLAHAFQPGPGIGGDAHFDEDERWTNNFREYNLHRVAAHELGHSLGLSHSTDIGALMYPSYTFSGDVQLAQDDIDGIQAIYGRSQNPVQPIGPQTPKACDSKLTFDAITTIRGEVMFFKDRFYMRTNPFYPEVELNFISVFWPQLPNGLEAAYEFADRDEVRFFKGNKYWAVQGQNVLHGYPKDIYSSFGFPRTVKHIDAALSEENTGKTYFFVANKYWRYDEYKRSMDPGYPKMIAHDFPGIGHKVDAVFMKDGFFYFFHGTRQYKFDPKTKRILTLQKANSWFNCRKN
Briefly: MMP-1 inhibition (thiopeptide or fluorescent peptide substrate). The note with it: for inhibition at 10 µM: read-out: MMP1.
Procedure: The enzyme activity is measured by the rate of the color increase. The thiopeptide substrate is made up fresh as a 20 mM stock in 100% DMSO and the DTNB is dissolved in 100% DMSO as a 100 mM stock and stored in the dark at room temperature. Both the substrate and DTNB are diluted together to 1 mM with substrate buffer (50 mM HEPES pH 7.5, 5 mM CaCl2) before use. The stock of enzyme is diluted with buffer (50 mM HEPES, pH 7.5, 5 mM CaCl2, 0.02% Brij) to the desired final concentration.
Alternatively, a fluorescent peptide substrate is used. In this test procedure, the peptide substrate contains a fluorescent group and a quenching group. Upon cleavage of the substrate by an MMP, the fluorescence that is generated is quantitated on the fluorescence plate reader. The assay is run in HCBC assay buffer (50mM HEPES, pH 7.0, 5 mM Ca^+2, 0.02% Brij, 0.5% Cysteine), with human recombinant MMP-1, MMP-9, or MMP-13. The substrate is dissolved in methanol and stored frozen in 1 mM aliquots. For the assay, substrate and enzymes are diluted in HCBC buffer to the desired concentrations. Compounds are added to the 96 well plate containing enzyme and the reaction is started by the addition of substrate.
For either the thiopeptide or fluorescent peptide test procedures, the slope of the line is calculated and represents the reaction rate. […] The mean (x±sem) of the control rate is calculated and compared for statistical significance (p<0.05) with drug-treated rates using Dunnett's multiple comparison test.

Where [5] appears, read: second table, IC50 (nM) per footnote a.

Read-outs that look alike come from different tables or passages of the source.

What is called IC50 is the point on the concentration scale where inhibition reaches its midpoint.

Chain of TNF-α converting enzyme (TACE) (P78536 215-824): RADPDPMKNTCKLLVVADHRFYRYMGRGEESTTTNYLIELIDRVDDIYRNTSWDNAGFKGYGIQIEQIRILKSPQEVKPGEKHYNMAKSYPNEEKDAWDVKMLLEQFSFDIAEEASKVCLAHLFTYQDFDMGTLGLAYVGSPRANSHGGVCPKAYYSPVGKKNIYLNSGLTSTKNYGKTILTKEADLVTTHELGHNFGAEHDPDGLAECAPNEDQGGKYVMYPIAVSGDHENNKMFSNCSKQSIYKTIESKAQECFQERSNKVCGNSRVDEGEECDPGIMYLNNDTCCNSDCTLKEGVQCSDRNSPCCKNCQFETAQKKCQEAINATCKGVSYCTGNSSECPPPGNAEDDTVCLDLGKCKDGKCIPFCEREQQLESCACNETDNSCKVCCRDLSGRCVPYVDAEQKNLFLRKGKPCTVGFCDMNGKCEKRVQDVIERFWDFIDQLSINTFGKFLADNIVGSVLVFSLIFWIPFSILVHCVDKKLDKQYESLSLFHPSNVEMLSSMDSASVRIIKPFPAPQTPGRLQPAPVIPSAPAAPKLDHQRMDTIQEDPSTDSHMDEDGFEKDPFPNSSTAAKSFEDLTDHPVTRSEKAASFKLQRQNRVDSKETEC

`CC#CCOc1ccc([S+]([O-])C(C(=O)NO)c2ccc(Cl)cc2)cc1` (mixture of isomers) [Example 81, 2-{[4-(2-butynyloxy)phenyl]sulfinyl}-2-(4-chlorophenyl) N-hydroxyacetamide]: the inhibition at 1 µM in test [1] was 21.6%. The same compound showed an IC50 in test [2] (setting [5]) of 223 nM. Moreover, the inhibition at 3 µM in test [3] came to 6%. In addition, the inhibition at 10 µM in test [4] was 30.5%.
In the case of `CC#CCOc1ccc([S+]([O-])[C@H](C(=O)NO)c2ccc(Br)cc2)cc1` (single isomer, unassigned) [Example 86], the inhibition at 10 µM in test [1] was 51%; in test [4], 24%. The compound also came in with an IC50 in test [2] (setting [5]) of 60 nM. The inhibition at 3 µM in test [3] is -2%.
On to `CC#CCOc1ccc([S+]([O-])[C@@H](C(=O)NO)c2cccc(Br)c2)cc1` (single isomer, unassigned) [Example 104], for which the inhibition at 10 µM in test [1] turned out to be 54%; in test [4], 6%. Besides, the IC50 in test [2] (setting [5]) was 63 nM. The inhibition at 3 µM in test [3] was found to be 4%.
Take `CC#CCOc1ccc(S(=O)(=O)C(C(=O)NO)c2ccc(-c3cccs3)cc2)cc1` (centres unmarked) [Example 91, 2-{[4-(2-butynyloxy)phenyl]sulfonyl}-N-hydroxy-2-[4-(2-thienyl)phenyl]acetamide]: the inhibition at 10 µM in test [1] was 35%; in test [2], 48%; in test [4] it was 10%. In test [3], the inhibition at 3 µM was determined as 2%.
`CC#CCOc1ccc([S+]([O-])[C@H](C(=O)NO)c2cccc(Br)c2)cc1` (single isomer, unassigned) [Example 105]: the values for the inhibition at 10 µM in test [1] and in test [4] were 32% and 9%, respectively. Further, half-maximal inhibition in test [2] (setting [5]) (IC50) was put at 106 nM. In addition, the inhibition at 3 µM in test [3] was -4%.
Regarding `CC#CCOc1ccc(SC(C(=O)NO)c2cccc3ccccc23)cc1` (centres unmarked) [Example 92, 2-{[4-(2-Butynyloxy)phenyl]sulfanyl}-N-hydroxy-2-(1-naphthyl)acetamide], the inhibition at 10 µM is 25% in test [1] and 8% in test [4]. The compound also had a 50% inhibitory concentration (IC50) in test [2] (setting [5]) of 931 nM. Moreover, the inhibition at 3 µM in test [3] was -7%.
On to `CC#CCOc1ccc([S+]([O-])C(C(=O)NO)c2ccc3ccccc3c2)cc1` (centres unmarked) [Example 115, 2-{[4-(2-butynyloxy)phenyl]sulfinyl}-2-(2-naphthyl)-N-hydroxyacetamide], for which the inhibition at 1 µM in test [1] was 45.1%. The compound also gave a concentration for half-maximal inhibition (IC50) in test [2] (setting [5]) of 141 nM. Further, the inhibition at 3 µM in test [3] came out at 11%. Further, in test [4], the inhibition at 10 µM was 4.11%.
`CC#CCOc1ccc([S+]([O-])[C@@H](C(=O)NO)c2ccc(-c3cccs3)cc2)cc1` (stereo partly drawn) [Example 90, (2R)-2-{[4-(2-butynyloxy)phenyl]sulfinyl}-N-hydroxy-2-[4-(2-thienyl)phenyl] ethanamide]: in test [1], the inhibition at 1 µM was 16%. For the same compound, the inhibition at 3 µM in test [3] came to 1%. Moreover, the inhibition at 10 µM in test [4] turned out to be 7%.
As for `CC#CCOc1ccc(SC(C(=O)NO)c2ccc(Br)cc2)cc1` (centres unmarked) [Example 85, 2-(4-bromophenyl)-2-{[4-(2-butynyloxy)phenyl]sulfanyl}-N-hydroxyacetamide], the inhibition at 10 µM stood at 30.5% in test [1] and 6.8% in test [4]. The IC50 in test [2] (setting [5]) was 391 nM. Besides, the inhibition at 3 µM in test [3] is -10%.
In the case of `CC#CCOc1ccc([S+]([O-])C(C(=O)NO)c2ccccc2OC)cc1` (centres unmarked) [Example 99, 2-(2-methoxyphenyl)-2-{[4-(2-butynyloxy)phenyl]sulfinyl}-N-hydroxyacetamide], the inhibition at 10 µM in test [1] amounted to 33.6%; in test [4], 0%. Moreover, the IC50 in test [2] (second table) was 1100 nM. The inhibition at 3 µM in test [3] was 1%.
As for `CC#CCOc1ccc([S+]([O-])C(C(=O)NO)c2cccc3ccccc23)cc1` (centres unmarked) [Example 93, 2-{[4-(2-Butynyloxy)phenyl]sulfinyl}-N-hydroxy-2-(1-naphthyl)acetamide], the results for the inhibition at 10 µM in test [1], in test [2] and in test [4] were 17%, 15.6% and 7%, respectively. In test [3], the inhibition at 3 µM was -1%.
For the compound `CC#CCOc1ccc(SC(C(=O)NO)c2ccc(-c3cccs3)cc2)cc1` (centres unmarked) [Example 89, 2{[4-(2-butynyloxy)phenyl]sulfanyl}-N-hydroxy-2-[4-(2-thienyl)phenyl]acetamide], the inhibition at 10 µM in test [1] came out at 5%; in test [4] it was 0%. Half-maximal inhibition in test [2] (setting [5]) (IC50) was put at 617 nM. The inhibition at 3 µM in test [3] amounted to 2%.
On to `CC#CCOc1ccc(S(=O)(=O)C(C(=O)NO)c2cccc(Cl)c2)cc1` (centres unmarked) [Example 84, 2-{[4-(2-butynyloxy)phenyl]sulfonyl}-2-(3-chlorophenyl)-N-hydroxyacetamide], for which, in test [1], the inhibition at 1 µM was determined as 23%. Moreover, the inhibition at 3 µM in test [3] was -7%. Further, the inhibition at 10 µM in test [4] was 10%.
For `CC#CCOc1ccc(S(=O)(=O)C(CCCCCC)C(=O)NO)cc1` (centres unmarked) [Example 5, 2-(4-But-2-ynyloxy-benzenesulfonyl)-octanoic acid hydroxamide], in test [3], the “THP (% inhibition)” value is 6%. In addition, the IC50 in test [4] (read-out: MMP1 IC50, Table 1) was determined as 10 µM.
Regarding `CC#CCOc1ccc(S(=O)(=O)C(C(=O)NO)C2CCOCC2)cc1` (centres unmarked) [Example 122, 2-{[4-(2-Butynyloxy)phenyl]sulfonyl}-N-hydroxy-2-tetrahydro-2H-pyran-4-yl-acetamide], the results for the inhibition at 10 µM in test [1] and in test [4] were 57% and 9%, respectively. In test [3], the inhibition at 3 µM was 36%.
On to `CC#CCOc1ccc(S(=O)(=O)C(C(=O)NO)c2cccc3ccccc23)cc1` (centres unmarked) [Example 94, 2-{[4-(2-Butynyloxy)phenyl]sulfonyl}-N-hydroxy-2-(1-naphthyl)acetamide], for which the inhibition at 10 µM in test [1] turned out to be 34%; in test [4], 8%. This compound also had an IC50 in test [2] (setting [5]) of 423 nM. Further, in test [3], the inhibition at 3 µM was -11%.
For `CC#CCOc1ccc(SC(C(=O)NO)c2cccc(Cl)c2)cc1` (centres unmarked) [Example 83, 2-{[4-(2-butynyloxy)phenyl]sulfanyl}-2-(3-chlorophenyl)-N-hydroxyacetamide], the inhibition at 10 µM amounted to 36.4% in test [1] and 9.4% in test [4]. The compound also gave a half-inhibitory concentration (IC50) in test [2] (setting [5]) of 133 nM. Also, the inhibition at 3 µM in test [3] came out at 0%.
As for `CC#CCOc1ccc(SC(C(=O)NO)C2CCCCC2)cc1` (centres unmarked) [Example 73, 2-{[4-(2-butynyloxy)phenyl]sulfanyl}-2-cyclohexyl-N-hydroxyacetamide], the inhibition at 3 µM in test [3] came out at 0%. Also, the inhibition at 10 µM in test [4] turned out to be 4.8%.
For `CC#CCOc1ccc(OCCC(=O)NO)cc1` [Example 9, 3-(4-But-2-ynyloxy-phenoxy)-N-hydroxy-propionamide], the IC50 in test [2] (Table 1) turned out to be 30 nM; in test [4] it was 10 µM. Further, the “THP (% inhibition)” value in test [3] stood at 16%.

(Values after patent EP1147080B1 (Wyeth Holdings Corporation, priority 1999, dated 2000).)
